# Test system: MCF-7 breast cancer cells
# Test: Microarray gene expression analysis (Agilent whole human genome 4 x 44K; compound vs DMSO, LIMMA log2 fold change)
# Format: cell-based
structure (smiles),measurement,setting,value
Cn1ncc2c(N3CCOCC3)nc(-c3cccc(O)c3)nc21 [ETP-45658],PRNP log2FC,,0.370
same,log2FC,,0.370
same,AARS log2FC,"Apoptosis genes, Gene 16",-0.198
same,ABL1 log2FC,"Apoptosis genes, Gene 25",-0.156
same,ABR log2FC,"Apoptosis genes, Gene 29",-0.380
same,ACTN4 log2FC,"Apoptosis genes, Gene 81",-0.260
same,ACTN1 log2FC,"Apoptosis genes, Gene 87",-0.609
same,ACTN2 log2FC,"Apoptosis genes, Gene 88",0.099
same,ACTN3 log2FC,"Apoptosis genes, Gene 89",-0.693
same,ACVR1 log2FC,"Apoptosis genes, Gene 90",0.534
same,ACVR1B log2FC,"Apoptosis genes, Gene 91",-0.563
same,ADA log2FC,"Apoptosis genes, Gene 100",-0.213
same,ADAM8 log2FC,"Apoptosis genes, Gene 101",-0.364
same,ADAR log2FC,"Apoptosis genes, Gene 103",-0.197
same,ADCYAP1 log2FC,"Apoptosis genes, Gene 116",0.068
same,ADD1 log2FC,"Apoptosis genes, Gene 118",-0.295
same,ADM log2FC,"Apoptosis genes, Gene 133",-0.856
same,ADORA1 log2FC,"Apoptosis genes, Gene 134",-2.012
same,ADORA2A log2FC,"Apoptosis genes, Gene 135",-0.309
same,ADRB1 log2FC,"Apoptosis genes, Gene 153",-0.090
same,AES log2FC,"Apoptosis genes, Gene 166",-0.293
same,AGT log2FC,"Apoptosis genes, Gene 183",-0.104
same,AHR log2FC,"Apoptosis genes, Gene 196",0.995
same,AKT1 log2FC,"Apoptosis genes, Gene 207",-0.608
same,AKT2 log2FC,"Apoptosis genes, Gene 208",-0.554
same,ALDH1A3 log2FC,"Apoptosis genes, Gene 220",0.149
same,ALDOC log2FC,"Apoptosis genes, Gene 230",-0.120
same,ALK log2FC,"Apoptosis genes, Gene 238",-0.050
same,ALOX15B log2FC,"Apoptosis genes, Gene 247",-0.102
same,ANGPT1 log2FC,"Apoptosis genes, Gene 284",-0.676
same,SLC25A4 log2FC,"Apoptosis genes, Gene 291",-0.331
same,SLC25A5 log2FC,"Apoptosis genes, Gene 292",0.173
same,ANXA1 log2FC,"Apoptosis genes, Gene 301",0.991
same,ANXA4 log2FC,"Apoptosis genes, Gene 307",0.463
same,ANXA5 log2FC,"Apoptosis genes, Gene 308",0.266
same,APAF1 log2FC,"Apoptosis genes, Gene 317",0.550
same,NUDT2 log2FC,"Apoptosis genes, Gene 318",0.291
same,APBB2 log2FC,"Apoptosis genes, Gene 323",-0.357
same,APC log2FC,"Apoptosis genes, Gene 324",0.117
same,BIRC3 log2FC,"Apoptosis genes, Gene 330",-0.843
same,BIRC5 log2FC,"Apoptosis genes, Gene 332",0.154
same,APLP1 log2FC,"Apoptosis genes, Gene 333",-0.281
same,APOE log2FC,"Apoptosis genes, Gene 348",-0.224
same,APP log2FC,"Apoptosis genes, Gene 351",0.379
same,FASLG log2FC,"Apoptosis genes, Gene 356",-0.198
same,AQP2 log2FC,"Apoptosis genes, Gene 359",-0.102
same,AR log2FC,"Apoptosis genes, Gene 367",0.203
same,ARAF log2FC,"Apoptosis genes, Gene 369",-0.542
same,ARF6 log2FC,"Apoptosis genes, Gene 382",-0.682
same,RHOB log2FC,"Apoptosis genes, Gene 388",-0.133
same,ARHGAP4 log2FC,"Apoptosis genes, Gene 393",-0.218
same,ARHGDIA log2FC,"Apoptosis genes, Gene 396",-1.118
same,ARRB2 log2FC,"Apoptosis genes, Gene 409",0.237
same,ASCL1 log2FC,"Apoptosis genes, Gene 429",-0.107
same,ASNS log2FC,"Apoptosis genes, Gene 440",-0.404
same,ATF4 log2FC,"Apoptosis genes, Gene 468",0.324
same,ATM log2FC,"Apoptosis genes, Gene 472",0.117
same,ATP2A1 log2FC,"Apoptosis genes, Gene 487",0.239
same,AVP log2FC,"Apoptosis genes, Gene 551",-0.579
same,AXL log2FC,"Apoptosis genes, Gene 558",-0.230
same,AZU1 log2FC,"Apoptosis genes, Gene 566",-0.123
same,BAD log2FC,"Apoptosis genes, Gene 572",0.276
same,BAG1 log2FC,"Apoptosis genes, Gene 573",1.170
same,BAK1 log2FC,"Apoptosis genes, Gene 578",-0.356
same,BARD1 log2FC,"Apoptosis genes, Gene 580",0.487
same,BAX log2FC,"Apoptosis genes, Gene 581",-0.255
same,BCL2 log2FC,"Apoptosis genes, Gene 596",-0.310
same,BCL2A1 log2FC,"Apoptosis genes, Gene 597",-0.192
same,BCL2L1 log2FC,"Apoptosis genes, Gene 598",-0.991
same,BCL2L2 log2FC,"Apoptosis genes, Gene 599",0.428
same,BCL3 log2FC,"Apoptosis genes, Gene 602",-0.569
same,BCL6 log2FC,"Apoptosis genes, Gene 604",0.771
same,BDNF log2FC,"Apoptosis genes, Gene 627",-0.132
same,BID log2FC,"Apoptosis genes, Gene 637",-0.095
same,BIK log2FC,"Apoptosis genes, Gene 638",-0.815
same,BLM log2FC,"Apoptosis genes, Gene 641",0.293
same,BMP4 log2FC,"Apoptosis genes, Gene 652",0.407
same,BMP7 log2FC,"Apoptosis genes, Gene 655",-0.344
same,BMPR1B log2FC,"Apoptosis genes, Gene 658",-0.091
same,BMX log2FC,"Apoptosis genes, Gene 660",0.114
same,BNIP1 log2FC,"Apoptosis genes, Gene 662",0.672
same,BNIP2 log2FC,"Apoptosis genes, Gene 663",0.527
same,BNIP3 log2FC,"Apoptosis genes, Gene 664",0.774
same,BNIP3L log2FC,"Apoptosis genes, Gene 665",1.085
same,FOXL2 log2FC,"Apoptosis genes, Gene 668",-0.812
same,BRCA1 log2FC,"Apoptosis genes, Gene 672",0.792
same,BRAF log2FC,"Apoptosis genes, Gene 673",-0.105
same,BRCA2 log2FC,"Apoptosis genes, Gene 675",0.092
same,BTC log2FC,"Apoptosis genes, Gene 685",0.205
same,BTG1 log2FC,"Apoptosis genes, Gene 694",1.142
same,BUB1 log2FC,"Apoptosis genes, Gene 699",0.803
same,BUB1B log2FC,"Apoptosis genes, Gene 701",0.344
same,TSPO log2FC,"Apoptosis genes, Gene 706",-0.089
same,C5AR1 log2FC,"Apoptosis genes, Gene 728",0.064
same,CACNA1A log2FC,"Apoptosis genes, Gene 773",-0.187
same,CALR log2FC,"Apoptosis genes, Gene 811",-0.081
same,CAMK2B log2FC,"Apoptosis genes, Gene 816",-0.123
same,CAST log2FC,"Apoptosis genes, Gene 831",0.572
same,CASP1 log2FC,"Apoptosis genes, Gene 834",0.048
same,CASP2 log2FC,"Apoptosis genes, Gene 835",-0.918
same,CASP3 log2FC,"Apoptosis genes, Gene 836",0.546
same,CASP4 log2FC,"Apoptosis genes, Gene 837",0.181
same,CASP5 log2FC,"Apoptosis genes, Gene 838",-0.128
same,CASP6 log2FC,"Apoptosis genes, Gene 839",0.574
same,CASP7 log2FC,"Apoptosis genes, Gene 840",-0.211
same,CASP8 log2FC,"Apoptosis genes, Gene 841",0.613
same,CASP9 log2FC,"Apoptosis genes, Gene 842",0.372
same,CASR log2FC,"Apoptosis genes, Gene 846",0.039
same,CAT log2FC,"Apoptosis genes, Gene 847",0.577
same,CAV1 log2FC,"Apoptosis genes, Gene 857",0.205
same,RUNX3 log2FC,"Apoptosis genes, Gene 864",-0.494
same,CBL log2FC,"Apoptosis genes, Gene 867",0.301
same,CBS log2FC,"Apoptosis genes, Gene 875",-0.275
same,KRIT1 log2FC,"Apoptosis genes, Gene 889",0.668
same,CCNG1 log2FC,"Apoptosis genes, Gene 900",0.908
same,CD2 log2FC,"Apoptosis genes, Gene 914",-0.352
same,CD3E log2FC,"Apoptosis genes, Gene 916",-0.399
same,CD3G log2FC,"Apoptosis genes, Gene 917",-0.295
same,CD5 log2FC,"Apoptosis genes, Gene 921",-0.055
same,CD5L log2FC,"Apoptosis genes, Gene 922",-0.110
same,CD14 log2FC,"Apoptosis genes, Gene 929",-0.514
same,CD28 log2FC,"Apoptosis genes, Gene 940",0.087
same,CD40 log2FC,"Apoptosis genes, Gene 958",-0.420
same,CD44 log2FC,"Apoptosis genes, Gene 960",-0.380
same,CD59 log2FC,"Apoptosis genes, Gene 966",0.286
same,CD74 log2FC,"Apoptosis genes, Gene 972",-0.135
same,CDC34 log2FC,"Apoptosis genes, Gene 997",0.349
same,CDC42 log2FC,"Apoptosis genes, Gene 998",0.143
same,CDK4 log2FC,"Apoptosis genes, Gene 1019",0.113
same,CDKN1A log2FC,"Apoptosis genes, Gene 1026",-1.401
same,CDKN1B log2FC,"Apoptosis genes, Gene 1027",1.129
same,CDKN2A log2FC,"Apoptosis genes, Gene 1029",0.240
same,CDKN2D log2FC,"Apoptosis genes, Gene 1032",0.891
same,CEBPB log2FC,"Apoptosis genes, Gene 1051",-0.358
same,CFL1 log2FC,"Apoptosis genes, Gene 1072",-0.261
same,CTSC log2FC,"Apoptosis genes, Gene 1075",-0.466
same,CGB log2FC,"Apoptosis genes, Gene 1082",-0.136
same,CLU log2FC,"Apoptosis genes, Gene 1191",-0.261
same,CLN3 log2FC,"Apoptosis genes, Gene 1201",-0.330
same,CCR7 log2FC,"Apoptosis genes, Gene 1236",0.098
same,PLK3 log2FC,"Apoptosis genes, Gene 1263",-1.808
same,CNR1 log2FC,"Apoptosis genes, Gene 1268",0.800
same,ATF2 log2FC,"Apoptosis genes, Gene 1386",0.857
same,CRH log2FC,"Apoptosis genes, Gene 1392",0.120
same,CRIP1 log2FC,"Apoptosis genes, Gene 1396",0.282
same,CRYAA log2FC,"Apoptosis genes, Gene 1409",-0.057
same,CRYAB log2FC,"Apoptosis genes, Gene 1410",-0.139
same,MAPK14 log2FC,"Apoptosis genes, Gene 1432",-0.291
same,CSE1L log2FC,"Apoptosis genes, Gene 1434",0.841
same,CSF2 log2FC,"Apoptosis genes, Gene 1437",-0.666
same,CSNK2A1 log2FC,"Apoptosis genes, Gene 1457",-0.545
same,CSNK2A2 log2FC,"Apoptosis genes, Gene 1459",0.183
same,CSTB log2FC,"Apoptosis genes, Gene 1476",0.083
same,NKX2-5 log2FC,"Apoptosis genes, Gene 1482",-0.753
same,CTGF log2FC,"Apoptosis genes, Gene 1490",-0.597
same,CTH log2FC,"Apoptosis genes, Gene 1491",0.708
